Measurements from publication PMC7076352 (Pharmaceutics, 2020).
Where two headings read alike, the source gives them in different places.

Columns and labels:
[1] = in vivo; set-up: species or system Sprague-Dawley (SD) rats; conditions: Sprague-Dawley, plasma, rat; for concentration at […]: 0.083 h after oral CNP
Description: At each time, 0.5 mL of blood was collected in the heparin sodium tubes. Plasma was separated by centrifugation at 4000 rpm for 10 min and stored below −80 °C until bioanalysis. Oasis PRiME HLB SPE cartridges (1 cc/30 mg, Waters, Milford, MA, USA) were used to process the plasma samples (Supplementary Materials).
The generic layout of instrumentation setup of the LVDI-UHPLC-MS/MS was conducted on a Shimadzu UHPLC system consisting of two LC-20ADXR pumps, a DGU-20A3R degasser, and a CBM-20A controller (Kyoto, Japan) with a SCIEX 4500 QTRAP mass spectrometer mounted with an electron spray ionization (ESI) interface as well as an electronic 6-port/2-channel valve (Foster City, CA, USA). Analyst software package (version 1.6.2, SCIEX) was implemented to control and synchronize the entire system, and also for data acquisition and processing. A single analytical run was fragmented into two phases, namely, loading and elution phases, by switching the electronic valve (Figure 2). At the loading phase, the valve was maintained at A-channel. The specimen aliquot of large volume delivered from the auto-sampler was captured onto a guard column. Meanwhile, the pumps were responsible for delivering the mobile phase at a high flow rate, aiming to dilute the sample solvent, thus facilitating the candidate constituents to concentrate on the pre-guard column. Then, the valve was automatically switched to the B-channel to trigger the elution phase. The trapped components were flushed from the pre-guard column into an analytical column, and underwent multiple reaction monitoring (MRM) analysis on the optimized LC gradients. The detailed information of LVDI-UHPLC-MS/MS analysis for pharmacokinetic and cocktail studies is shown in the Supplementary Materials section.

[2] = test system: CYP2D6; assay: in vitro; conditions: Sprague-Dawley, rat; for IC50 at 15 min: microsomes, pH 7.4, IC50 CYP2D6
Description: (§1) (OHBUP-[D6]) and 5 nM 4′-hydroxydiclofenac-[^13C6] (OHDIC-[^13C6]) as internal standards (ISs). […]
(§2) standard addition experiments. Each group included four concentration levels. For the PK […]
(§3) The probe compounds, viz. […]
(§4) chosen after incubating all the recruited substrates. In order to assure the linear relationship […]
(§5) The incubation system was also optimized in terms of substrate concentrations. The substrates concentrations of […]

[3] = test system: CYP3A4; assay: in vitro
Description: as §1, §2, §3, §4, §5

[4] = test system: CYP2C9; assay: In vitro cocktail CYP450 activity assay in rat liver microsomes, CYP2C9 (tolbutamide probe); conditions: for IC50 at 15 min: Sprague-Dawley, rat, pooled rat liver microsomes, pH 7.4, probe tolbutamide (18 µM, in seven-probe cocktail), IC50 CYP2C9, single components, RLM 0.2 mg/mL, triplicate, mean ± SD
Description: as §1, §2, §3, §4, §5

[5] = test system: CYP2B6; assay: In vitro cocktail CYP450 activity assay in rat liver microsomes, CYP2B6 (bupropion probe); conditions: for IC50 at 15 min: Sprague-Dawley, rat, pooled rat liver microsomes, pH 7.4, probe bupropion (90 µM, in seven-probe cocktail), IC50 CYP2B6, single components, RLM 0.2 mg/mL, triplicate, mean ± SD
Description: as §1, §2, §3, §4, §5

[6] = target: T1, CYP2E1 (Rattus norvegicus, UniProt P05182)
T1 sequence (P05182 whole entry): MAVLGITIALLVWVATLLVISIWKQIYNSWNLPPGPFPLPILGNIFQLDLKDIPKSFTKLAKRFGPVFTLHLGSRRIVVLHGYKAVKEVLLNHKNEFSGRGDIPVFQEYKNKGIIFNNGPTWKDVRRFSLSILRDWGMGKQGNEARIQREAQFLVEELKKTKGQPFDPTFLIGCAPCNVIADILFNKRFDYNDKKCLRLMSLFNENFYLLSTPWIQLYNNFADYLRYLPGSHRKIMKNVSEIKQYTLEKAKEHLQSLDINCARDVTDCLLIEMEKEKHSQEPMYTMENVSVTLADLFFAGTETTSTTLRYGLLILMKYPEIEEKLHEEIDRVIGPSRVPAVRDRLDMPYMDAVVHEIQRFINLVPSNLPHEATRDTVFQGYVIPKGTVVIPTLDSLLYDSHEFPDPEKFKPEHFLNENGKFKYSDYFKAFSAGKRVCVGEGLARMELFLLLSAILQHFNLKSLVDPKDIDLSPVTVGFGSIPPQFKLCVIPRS
Description: (§6) For the cocktail assay, the activity is expressed as the percentage of activity remaining comparing with that of a control sample containing no inhibitor. […] All the data were described as mean ± standard deviation (SD). Normality assumptions were tested by the Kolmogorov–Smirnov statistic setting p = 0.10 as the limit for rejection of the null hypothesis of normality. If the distribution of the data was normal with equal variances, a two-sided test was performed at the 5% level of significance. The Welch’s correction was then applied when the underlying variances were not equal. When the assumption of normality must be rejected, the Mann-Whitney test, a non-parametric equivalent of the independent-measures t-test, was used.

[7] = test system: CYP2C19; assay: In vitro cocktail CYP450 activity assay in rat liver microsomes, CYP2C19 (omeprazole probe); conditions: for IC50 at 15 min: Sprague-Dawley, rat, pooled rat liver microsomes, pH 7.4, probe omeprazole (1.07 µM, in seven-probe cocktail), IC50 CYP2C19, single components, RLM 0.2 mg/mL, triplicate, mean ± SD; for Response (% control) CYP2C19: at the Cmax level in rat plasma, calculated from the dose–response curve
Description: as §1, §2, §3, §4, §5

[8] = target: T1, CYP2E1; conditions: IC50 CYP2E1, single components; RLM 0.2 mg/mL, 15 min, triplicate, mean ± SD
Description: as §6

[9] = target: T2, CYP1A2 (Rattus norvegicus, UniProt P04799); assay: In vitro cocktail CYP450 activity assay in rat liver microsomes, CYP1A2 (phenacetin probe); conditions: for IC50: IC50 CYP1A2, single components, RLM 0.2 mg/mL, 15 min, triplicate, mean ± SD; for Response (% control) CYP1A2: at the Cmax level in rat plasma, calculated from the dose–response curve
T2 sequence (P04799 1-513): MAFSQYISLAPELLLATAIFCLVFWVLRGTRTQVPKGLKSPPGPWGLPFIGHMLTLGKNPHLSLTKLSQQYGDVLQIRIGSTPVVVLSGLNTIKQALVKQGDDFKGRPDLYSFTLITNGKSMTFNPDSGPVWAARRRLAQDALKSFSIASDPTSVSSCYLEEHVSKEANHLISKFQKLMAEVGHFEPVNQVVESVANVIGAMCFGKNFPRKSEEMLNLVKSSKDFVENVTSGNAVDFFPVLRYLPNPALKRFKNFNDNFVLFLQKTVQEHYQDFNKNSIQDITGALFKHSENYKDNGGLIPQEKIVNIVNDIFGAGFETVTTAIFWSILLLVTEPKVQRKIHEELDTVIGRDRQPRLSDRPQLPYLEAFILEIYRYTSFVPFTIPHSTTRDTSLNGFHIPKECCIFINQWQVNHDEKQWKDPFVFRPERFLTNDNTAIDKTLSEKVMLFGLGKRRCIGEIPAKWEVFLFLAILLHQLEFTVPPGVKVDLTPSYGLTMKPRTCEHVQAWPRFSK
Description: as §1, §2, §3, §4, §5

[10] = Sprague-Dawley, rat, 15 min, pH 7.4
[11] = at the Cmax level in rat plasma, calculated from the dose–response curve

## CC(C)=CCC[C@](C)(O[C@@H]1O[C@H](CO)[C@@H](O)[C@H](O)[C@H]1O)[C@H]1CC[C@]2(C)[C@@H]1[C@H](O)C[C@@H]1[C@@]3(C)CC[C@H](O[C@@H]4O[C@H](CO)[C@@H](O)[C@H](O)[C@H]4O[C@@H]4O[C@H](CO)[C@@H](O)[C@H](O)[C@H]4O)C(C)(C)[C@@H]3CC[C@]12C [GRd, ginsenoside Rd]
[1]
  concentration at […]: 6.63 ± 0.64 ng/mL
[1]; 0.25 h after oral CNP
  concentration at 0.25 h: 7.13 ± 0.69 ng/mL
[1]; 0.5 h after oral CNP
  concentration at 0.5 h: 12.5 ± 4.73 ng/mL
[1]; 1 h after oral CNP
  concentration at 1 h: 13.5 ± 3.67 ng/mL
[1]; 1.5 h after oral CNP
  concentration at 1.5 h: 12.8 ± 1.79 ng/mL
[1]; 2 h after oral CNP
  concentration at 2 h: 17.6 ± 5.2 ng/mL
[1]; 3 h after oral CNP
  concentration at 3 h: 18.7 ± 7.48 ng/mL
[1]; 4 h after oral CNP
  concentration at 4 h: 25 ± 15.8 ng/mL
[1]; 6 h after oral CNP
  concentration at 6 h: 24.9 ± 13.1 ng/mL
[1]; 8 h after oral CNP
  concentration at 8 h: 15.6 ± 5.29 ng/mL
[1]; 12 h after oral CNP
  concentration at 12 h: 12.4 ± 7.03 ng/mL
[1]; 24 h after oral CNP
  concentration at 24 h: 2.85 ± 0.67 ng/mL
[1]; 48 h after oral CNP
  concentration at 48 h: 3.96 ± 0.34 ng/mL
[1]; 72 h after oral CNP
  concentration at 72 h: 2.32 ± 0.12 ng/mL
[1]; po, 60 mg/kg
  AUC(0-inf): 619 ± 157 ng·h/mL
  AUC(0-t): 461 ± 117 ng·h/mL
  Cmax: 29.4 ± 10.7 ng/mL
  Tmax: 4.5 ± 1.76 h
  half-life: 42.8 ± 8.84 h
[1]; po, 60 mg·kg^−1
  concentration at 0.25 h: 9 ± 2.12 ng/mL
  concentration at 0.5 h: 11.5 ± 0.97 ng/mL
  concentration at 1 h: 13.9 ± 4.94 ng/mL
  concentration at 1.5 h: 14.9 ± 3.51 ng/mL
  concentration at 2 h: 19.2 ± 6.71 ng/mL
  concentration at 3 h: 22.3 ± 14.6 ng/mL
  concentration at 4 h: 23.9 ± 12.6 ng/mL
  concentration at 6 h: 26.2 ± 10.4 ng/mL
  concentration at 8 h: 16.7 ± 7.24 ng/mL
  concentration at 12 h: 8.73 ± 3.74 ng/mL
  concentration at 24 h: 3.57 ± 1.4 ng/mL
  concentration at 48 h: 4.15 ± 1.97 ng/mL
  concentration at 72 h: 2.52 ± 0.63 ng/mL
[2]; 15 min, pH 7.4
  Response (% control) CYP2D6: 99.99 % control
[2]
  IC50 at 15 min: 64.8 ± 11.7 µM
[3]; [10]
  Response (% control) CYP3A4: 85.25 % control
[3]; Sprague-Dawley, rat, microsomes, pH 7.4
  IC50 at 15 min: 61.4 ± 14.3 µM
[4]
  IC50 at 15 min: 73 ± 3.71 µM
[4]; [11]
  Response (% control) CYP2C9: 99.97 % control
[5]
  IC50 at 15 min: > 200 µM
[6]; [11]
  Response (% control) CYP2E1: 98.16 % control
[7]
  IC50 at 15 min: 71.4 ± 14.3 µM
  Response (% control) CYP2C19: 99.95 % control
[8]
  IC50: 43.46 ± 0.06 µM
[9]
  IC50: 4.36 ± 2.31 µM
  Response (% control) CYP1A2: 71.33 % control

## CC(C)=CCC[C@](C)(O[C@@H]1O[C@H](CO)[C@@H](O)[C@H](O)[C@H]1O)[C@H]1CC[C@]2(C)[C@@H]1[C@H](O)C[C@@H]1[C@@]3(C)CC[C@H](O)C(C)(C)[C@@H]3[C@@H](O[C@@H]3O[C@H](CO)[C@@H](O)[C@H](O)[C@H]3O[C@@H]3O[C@@H](C)[C@H](O)[C@@H](O)[C@H]3O)C[C@]12C [GRe, ginsenoside Re]
[1]
  concentration at […]: 0.24 ± 0.02 ng/mL
[1]; 0.25 h after oral CNP
  concentration at 0.25 h: 0.25 ± 0.01 ng/mL
[1]; 0.5 h after oral CNP
  concentration at 0.5 h: 0.33 ± 0.11 ng/mL
[1]; 1 h after oral CNP
  concentration at 1 h: 0.24 ± 0.04 ng/mL
[1]; 1.5 h after oral CNP
  concentration at 1.5 h: 0.24 ± 0.03 ng/mL
[1]; 2 h after oral CNP
  concentration at 2 h: 0.23 ± 0.02 ng/mL
[1]; 3 h after oral CNP
  concentration at 3 h: 0.28 ± 0.1 ng/mL
[1]; 4 h after oral CNP
  concentration at 4 h: 0.28 ± 0.07 ng/mL
[1]; 6 h after oral CNP
  concentration at 6 h: 0.23 ± 0.03 ng/mL
[1]; 8 h after oral CNP
  concentration at 8 h: 0.14 ± 0.03 ng/mL
[1]; po
  half-life: 5.99 ± 3.86 h
[1]; po, 60 mg/kg
  AUC(0-inf): 2.9 ± 0.6 ng·h/mL
  AUC(0-t): 1.82 ± 0.19 ng·h/mL
  Cmax: 0.29 ± 0.04 ng/mL
  Tmax: 2.6 ± 0.89 h
  half-life: 5.25 ± 2.27 h
[1]; po, 60 mg·kg^−1
  concentration at 0.25 h: 0.26 ± 0.02 ng/mL
  concentration at 0.5 h: 0.24 ± 0.02 ng/mL
  concentration at 1 h: 0.25 ± 0.02 ng/mL
  concentration at 1.5 h: 0.22 ± 0.02 ng/mL
  concentration at 2 h: 0.21 ± 0.01 ng/mL
  concentration at 3 h: 0.27 ± 0.04 ng/mL
  concentration at 4 h: 0.25 ± 0.05 ng/mL
  concentration at 6 h: 0.24 ± 0.06 ng/mL
  concentration at 8 h: 0.13 ± 0.01 ng/mL
[2]
  IC50 at 15 min: > 200 µM
[3]; Sprague-Dawley, rat, microsomes, pH 7.4, IC50 CYP3A4, single components, RLM 0.2 mg/mL, 15 min, triplicate, mean ± SD
  IC50: 75.1 ± 7.24 µM
[3]; [11]
  Response (% control) CYP3A4: 99.99 % control
[4]
  IC50 at 15 min: > 200 µM
[5]
  IC50 at 15 min: 39.4 ± 4.81 µM
[5]; [11]
  Response (% control) CYP2B6: 99.64 % control
[6]; [10]
  Response (% control) CYP2E1: 97.35 % control
[7]
  IC50 at 15 min: 50.5 ± 15.4 µM
  Response (% control) CYP2C19: 98.36 % control
[8]
  IC50: 25.6 ± 9.03 µM
[9]
  IC50: 94.4 ± 4.52 µM
  Response (% control) CYP1A2: 99.99 % control
